# Assays:
# Assay type in all cases: cell-based
# [1] = test system: rat endothelial cerebral cells; test: Aβ25-35 peptide toxicity, LDH release from rat endothelial cerebral cells; settings: FIG. 1; for Protective effect against beta-amyloid peptide toxicity on LDH release (prevention of Aβ25-35 intoxication): Aβ25-35 30 μM, 3 days, drug added 1 hour before; for Spontaneous cell death in the culture medium: rat endothelial cerebral cells, LDH release
# Experimental: Primo culture of rat endothelial cerebral cells (Vect-Horus SAS, Marseille) is cultivated on passage 0. At confluence, endothelial cells are dissociated with trypsin EDTA (Pan Biotech Ref: P10-023100). Cells are seeded at a density of 25 000 cells/well in 96 well-plates (wells are coated with 30 μl of type I rat collagen at 1.5 mg/ml, Vect-Horus SAS, Marseille) and are cultured in MCBD 131 medium (M−131-500, Invitrogen) supplemented with 1% of microvascular growth supplement (MVGS, S-005-25, Invitrogen). Cells are cultured at 37° C. in a humidified air (95%)/CO2(5%) atmosphere. Half of the medium is changed every other day with fresh medium. After 4 days, drugs are added to the cell culture medium, at different concentrations, solved in DMSO 0.1% or water.
# Cells are then intoxicated with 30 μM of β-amyloid (25-35; Sigma) together with drugs in the same culture medium. Cells are then intoxicated during 3 days.
# For each culture, after 3 days of intoxication, the supernatant is collected and analyzed with Cytotoxicity Detection Kit (LDH, Roche Applied Sciences). This colorimetric assay for the quantification of cell death is based on the measurement of lactate dehydrogenase (LDH) activity released from the cytosol of damaged cells into the supernatant. The optic density (DO) is assessed by spectrophotometer at 492 nm wavelength by a multiscan apparatus (Thermo, Ref Ascent).
# Results presented in FIG. 1 are extracted from two independent cultures, 6 wells per condition. All values are expressed as mean±s.e.m. A bilateral Student's t test analysis is performed on raw data. Results are expressed in percentage of cell viability, compared to the control (vehicle).
# Drugs are incubated with rat primary cerebral endothelial cells one hour before Aβ25-35 30 μM intoxication that lasts 3 days.
# Three days after this incubation, LDH release in the culture medium is quantified, reflecting the level of cell death.
# [2] = test system: Human Brain Microvascular Endothelial Cells (HBMEC); test: human Aβ1-42 injury in HBMEC, total length of capillary network; settings: for Effect on intoxication: total length of capillary network in beta-amyloid intoxicated HBMEC cultures: Aβ1-42 2.5 μM, combination versus each drug alone at the same concentrations, FIG. 4-6; for Prevention of Aβ1-42 intoxication in HBMEC (capillary network): drug pretreatment, FIG. 2B, 2C
# Experimental: Human brain microvascular endothelial cerebral cells (HBMEC, ScienCell Ref: 1000, frozen at passage 10) were rapidly thawed in a waterbath at +37° C.
# The control medium was prepared in the same conditions.
# After 3 days, this human amyloid peptide was used on HBMEC at 2.5 μM diluted in control medium (optimal incubation time). The Aβ1-42 peptide was added 2 hours after HBMEC seeding on matrigel for 18 hours incubation.
# Capillary Network Quantification
# Per well, 2 pictures with 4× lens were taken using InCell Analyzer™ 1000 (GE Healthcare) in light transmission. All images were taken in the same conditions. Analysis of the angiogenesis networks was done using Developer software (GE Healthcare). The total length of capillary network was assessed.
# All values are expressed as mean±s.e.mean of the 3 cultures (n=6 per condition). Statistic analyses were done on the different conditions performing an ANOVA followed by the Dunnett's test when it was allowed (Statview software version 5.0). The values (as %) inserted on the graphs show the amyloid toxicity evolution. Indeed, the amyloid toxicity was taken as the 100% and the test compound effect was calculated as a % of this amyloid toxicity.
# [3] = test system: rat primary cortical cells; test: human Aβ1-42 toxicity, LDH release in rat primary cortical neurons; settings: Aβ1-42 10 μM 24 h, 1 hr pre-treatment; FIG. 3
# Experimental: Primary rat cortical neurons are cultured as described previously.
# Briefly, Aβ1-42 peptide was reconstituted in define culture medium at 40 μM (mother solution) and was slowly shaked at +37° C. for 3 days in dark. The control medium was prepared in the same conditions.
# After 10 days of neuron culture, drug was solved in culture medium (+0.1% DMSO) and then pre-incubated with neurons for 1 hour before the Aβ1-42 application (in a final volume per culture well of 100 μl). One hour after drug incubation, 100 μl of Aβ1-42 peptide was added to a final concentration of 10 μM diluted in presence of drug, in order to avoid further drug dilutions. Cortical neurons were intoxicated for 24 hours. Three separate cultures were performed per condition, 6 wells per condition.
# BDNF (50 ng/ml) and Estradiol-β (100 and 150 nM) were used as positive control and reference compounds respectively.
# The following conditions were assessed: • 1 CONTROL PLAQUE: 12 wells/condition • Negative Control: medium alone+0.1% DMSO • Intoxication: amyloid-β1-42 (10 μM) for 24 h • Positive control: BDNF (50 ng/ml) 1 hr followed by amyloid-β1-42 (10 μM) for 24 h • Reference compound: Estradiol (150 nM) 1 hr followed by amyloid-β1-42 (10 μM) for 24 h. • DRUG PLATE: 6 wells/condition • Negative Control: medium alone+0.1% DMSO • Intoxication: amyloid-β1-42 (10 μM) for 24 h • Drug 1: Drug 1-1 hr followed by amyloid-β1-42(10 μM) for 24 h • Drug 2: Drug 2-1 hr followed by amyloid-β1-42(10 μM) for 24 h Lactate Dehydrogenase (LDH) Activity Assay
# This colorimetric assay for the quantification of cell toxicity is based on the measurement of lactate dehydrogenase (LDH) activity released from the cytosol of dying cells into the supernatant.
# All values are expressed as mean±s.e.mean of the 3 cultures (n=6 per condition). Statistic analyses were done on the different conditions (ANOVA followed by the Dunnett's test when it was allowed, Statviewi software version 5.0).
Molecule,Protective effect against beta-amyloid peptide toxicity on LDH release (prevention of Aβ25-35 intoxication) [1],Effect on intoxication: total length of capillary network in beta-amyloid intoxicated HBMEC cultures [2],Spontaneous cell death in the culture medium [1],Prevention of Aβ1-42 intoxication in HBMEC (capillary network) [2],Change of LDH release (Aβ1-42 amyloid injury) in rat primary cortical cells [3]
Cc1noc(NS(=O)(=O)c2ccc(N)cc2)c1C [Sulfisoxazole],significantly prevented,no significant effect,,,
CN(C/C=C/C#CC(C)(C)C)Cc1cccc2ccccc12 [Terbinafine],significantly prevented,no significant effect,decrease spontaneous cell death,significantly prevented,
C[C@@H]1CC(=O)NN=C1c1ccc(NN=C(C#N)C#N)cc1 [Levosimendan],,no significant effect,,,
NCC(CC(=O)O)c1ccc(Cl)cc1 (racemic) [Baclofen],,no significant effect,,significantly prevented,−86%
"NCC(CC(=O)O)c1ccc(Cl)cc1 (stereo not drawn) [Baclofen (−), Baclofen]",significantly prevented,,,,
Cc1oncc1C(=O)Nc1ccc(C(F)(F)F)cc1 [Leflunomide],significantly prevented,,decrease spontaneous cell death,,−62%
"BDNF: BDNF (50 ng/ml), positive control for neuroprotection (protein, UniProt P23560 19-247, looked up) Neurotrophic factor BDNF …: APMKEANIRGQGGLAYPGVRTHGTLESVNGPKAGSRGLTSLADTFEHVIEELLDEDQKVRPNEENNKDADLYTSRVMLSSQVPLEPPLLFLLEEYKNYLDAANMSMRVRRHSDPARRGELSVCDSISEWVTAADKKTAVDMSGGTVTVLEKVPVSKGQLKQYFYETKCNPMGYTKEGCRGIDKRHWNSQCRTTQSYVRALTMDSKKRIGWRFIRIDTSCVCTLTIKRGR",,,,,−95%
